# Test results: article doi:10.1101/2025.05.02.651913 (bioRxiv, 2025)
# Counter-ions that a name gives are not always drawn.
# System: MPXV strain hMPXV/USA/MA001/2022 (Lineage B.1, Clade IIb)
# Type: cell-based, Mpox virus (MPXV)
row,Compound,Duplicate of Duplicate of Hits: No CPE
1,"C=CC(=O)Nc1cccc(Oc2nc(Nc3ccc(N4CCN(C)CC4)cc3)ncc2Cl)c1 [NKIL-WZ3146, WZ3146]",1
2,"COc1cccc(Nc2ncnn3ccc(CN4CC[C@@H](N)[C@H](O)C4)c23)c1 [MC-BMS-690514, BMS-690514]",1
3,"C=CC(=O)Nc1cc2c(Nc3ccc(F)c(Cl)c3)ncnc2cc1C#CC(C)(C)N1CCN(C)CC1 [MC-AV-412 (free base), AV-412 (free base)]",1
4,"C#Cc1cccc(Nc2ncnc3cc(OC)c(NC(=O)N4C[C@H]5CCN(C)[C@H]5C4)cc23)c1 [MC-Theliatinib, Theliatinib]",1
5,Gilmelisib [MC-Gilmelisib],1
6,"COCc1c(-c2ccc(NC(=O)Nc3cc(C(F)(F)F)ccc3F)c(F)c2)c2c(N)ncnn2c1CN1CCOCC1 [MC-EOC317, EOC317]",1
7,"O=C(Nc1ccncc1)Nc1ccc(-c2nc(N3CCOCC3)nc(N3C4CCC3COC4)n2)cc1 [MC-PKI-179 (hydrochloride), PKI-179 (hydrochloride)]",1
8,"C=CC(=O)Nc1cc(Nc2nccc(-c3cn(C)c4ccccc34)n2)c(OC)cc1N(C)CCN(C)C [NKIL-AZD9291, Osimertinib]",1
9,"COc1cc2ncnc(Nc3cccc(Br)c3)c2cc1OC.Cl [LOPAC-PD153035 hydrochloride, PD153035 hydrochloride]",1
10,"CNS(=O)(=O)Nc1nccc(Cc2c(C)c3ccc(Oc4ncccn4)cc3oc2=O)c1F [MC-Avutometinib, Avutometinib]",1
11,"N[C@H]1CC[C@H](Nc2nc(Nc3ccc(C(=O)N4CCCCC4)cc3)c3ncn(-c4cccc(F)c4)c3n2)CC1 [MC-Purfalcamine, Purfalcamine]",1
12,"CNC(=O)c1ccccc1Nc1cc(Nc2ccc(N3CCN(CC(=O)N[C@H](C(=O)N4C[C@H](O)C[C@H]4C(=O)N[C@@H](C)c4ccc(-c5scnc5C)cc4)C(C)(C)C)CC3)cc2OC)ncc1C(F)(F)F [MC-GSK215, GSK215]",1
13,Mutant EGFR inhibitor [MC-Mutant EGFR inhibitor],1
14,"C=CC(=O)Nc1cc2c(Nc3ccc(F)c(Cl)c3)ncnc2cc1OC [MC-PF-6274484, PF-6274484]",1
15,"O=C(c1ccc(F)c(F)c1Nc1ccc(I)cc1F)N1CC(O)([C@@H]2CCCCN2)C1 [NKIL-Cobimetinib (GDC-0973, RG7420), Cobimetinib]",1
16,"C=CC(=O)Nc1cc(Nc2nccc(-c3cn(C)c4ccccc34)n2)c(OC)cc1N(C)CCN(C)C.CS(=O)(=O)O [MC-Osimertinib (mesylate), Osimertinib (mesylate)]",1
17,"COc1cc2ncnc(Nc3cccc(Cl)c3)c2cc1OC [LOPAC-Tyrphostin AG 1478, Tyrphostin AG 1478]",1
18,"CCN1CCC(Nc2ccc3c(c2)/C(=C(\c2cccc(F)c2)c2ncc(C)[nH]2)C(=O)N3)CC1 [MC-Tyrosine kinase-IN-1, Tyrosine kinase-IN-1]",1
19,"C#Cc1cccc(Nc2ncnc3cc(OCCOC)c(OCCO)cc23)c1.Cl [MC-Desmethyl Erlotinib, Desmethyl Erlotinib]",1

row,Compound,Duplicate of Duplicate of Hits: No CPE
1,"CNC(=O)CN1CCC(Oc2cc3c(Nc4cccc(Cl)c4F)ncnc3cc2OC)CC1 [NKIL-AZD8931 (Sapitinib), Sapitinib]",1
2,"CCOc1cc2ncc(C#N)c(Nc3ccc(OCc4ccccn4)c(Cl)c3)c2cc1NC(=O)/C=C/CN(C)C [MC-Neratinib, Neratinib]",1
3,"C=CC(=O)Nc1cc(Nc2nccc(-c3cn(C4CC4)c4ccccc34)n2)c(OC)cc1N(C)CCN(C)C.CS(=O)(=O)O [MC-Almonertinib (mesylate), Almonertinib (mesylate)]",1
4,"C#Cc1cccc(Nc2ncnc3cc(OCCOC)c(OCCOC)cc23)c1.Cl [MC-Erlotinib (Hydrochloride), Erlotinib (Hydrochloride)]",1
5,"Cc1c(=O)n(C)c(Nc2ccc(I)cc2F)c2c(=O)n(C3CC3)c(=O)n(-c3cccc(N)c3)c12 [MC-GSK1790627, GSK1790627]",1
6,"CC(=O)Nc1cccc(-n2c(=O)n(C3CC3)c(=O)c3c(Nc4ccc(I)cc4F)n(C)c(=O)c(C)c32)c1.C[S+](C)[O-] [MC-Trametinib (DMSO solvate), Trametinib (DMSO solvate)]",1
7,"C=CC(=O)Nc1cc(Nc2ncc(C(=O)OC(C)C)c(-c3cn(C)c4ccccc34)n2)c(OC)cc1N(C)CCN(C)C [MC-Mobocertinib, Mobocertinib]",1
8,"COc1cc(F)c(F)c(Nc2ccc(I)cc2F)c1NS(=O)(=O)C1(C[C@H](O)CO)CC1 [NKIL-Refametinib (RDEA119, Bay 86-9766), Refametinib]",1
9,"Cc1ccc(C(=O)Nc2ccc(CN3CCN(C)CC3)c(C(F)(F)F)c2)cc1C#Cc1cnc2cccnn12.Cl [MC-Ponatinib (hydrochloride), Ponatinib (hydrochloride)]",1
10,"N[C@@H]1c2ccccc2OC12CCN(c1cnc3c(N4CCCc5ncccc54)n[nH]c3n1)CC2 [MC-Migoprotafib, Migoprotafib]",1
11,"CN(C)C/C=C/C(=O)Nc1cc2c(Nc3ccc(Cl)c(Br)c3)ncnc2cn1 [MC-Tarlox-TKI, Tarlox-TKI]",1
12,"COc1cc2ncnc(Nc3ccc(F)c(Cl)c3)c2cc1NC(=O)/C=C/CN1CCCCC1 [NKIL-Dacomitinib (PF299804, PF299), Dacomitinib]",1
13,"O=C(NOC[C@H](O)CO)c1ccc(F)c(F)c1Nc1ccc(I)cc1F [LOPAC-PD 0325901, Mirdametinib]",1
14,"C=CC(=O)N1CCC[C@@H](n2c(=O)n(-c3ccc(Oc4ccccc4)cc3)c3c(N)nccc32)C1 [MC-Tolebrutinib, Tolebrutinib]",1
15,"Cc1cnc(Nc2ccc(F)cc2Cl)nc1-c1c[nH]c(C(=O)N[C@H](CO)c2cccc(Cl)c2)c1 [NKIL-VX-11e, VX-11e]",1
16,"CN(C)C/C=C/C(=O)Nc1cc2c(Nc3ccc(F)c(Cl)c3)ncnc2cc1OC(F)F [MC-Mefatinib (free base), Mefatinib (free base)]",1
17,"C=CC(=O)Nc1cc(Nc2nccc(-c3cn(CC(F)(F)F)c4ccccc34)n2)c(OC)cc1N(C)CCN(C)C [MC-Befotertinib, Befotertinib]",1
18,"C=CC(=O)Nc1cc(Nc2nccc(Nc3cc(Cl)c(F)cc3C(C)(C)O)n2)c(OC)cc1N1CC[C@@H](N(C)C)C1 [MC-Sunvozertinib, Sunvozertinib]",1
19,"C=CC(=O)Nc1cc(Nc2nccc(-c3cn(C)c4ccccc34)n2)c(OC)cc1N(C)CCNC.CS(=O)(=O)O.CS(=O)(=O)O.CS(=O)(=O)O [MC-AZ7550 Mesylate, AZ7550 Mesylate]",1

row,Compound,Duplicate of Duplicate of Hits: No CPE
1,"O=C(c1ccc(F)c(F)c1Nc1ccc(I)cc1F)N1CC(O)([C@@H]2CCCCN2)C1 (racemic) [MC-Cobimetinib (racemate), Cobimetinib (racemate)]",1
2,"CS[C@@]1(C(=O)Nc2ccc3[nH]nc(-c4ccc(OC(C)C)nc4)c3c2)CCN(CC(=O)N2CC=C(c3ccc(-c4ncn(C)n4)cc3)CC2)C1 [MC-MK-8353, MK-8353]",1
3,KIRA-7 [MC-KIRA-7],1
4,"O=C1Nc2ccc3ncsc3c2/C1=C/c1cnc[nH]1 [MC-PKR-IN-C16, PKR-IN-C16]",1
5,"Cc1nc2c(-c3cnc(N)nc3)nc(N3CCOCC3)nc2n1C(C)C [NKIL-VS-5584 (SB2343), VS-5584]",1
6,"COc1cc(Nc2c(C#N)cnc3cc(OCCCN4CCN(C)CC4)c(OC)cc23)c(Cl)cc1Cl [LOPAC-Bosutinib, Bosutinib]",1
7,"O=C(NOCC(O)CO)c1cc(Br)c(F)c(F)c1Nc1ccc(I)cc1F (centres unmarked) [NKIL-PD318088, PD318088]",1
8,"C=CC(=O)Nc1cccc(Nc2nc(Nc3ccc(NC4CN(CCF)C4)cc3OC)ncc2C(F)(F)F)c1 [NKIL-CNX-2006, CNX-2006]",1
9,"O=C(NC[C@H](O)CO)c1ccncc1Nc1ccc(I)cc1F [NKIL-Pimasertib (AS-703026), Pimasertib]",1
10,"Cc1cccc(/C=N/Nc2cc(N3CCOCC3)nc(OCCc3ccccn3)n2)c1 [MC-Apilimod, Apilimod]",1
11,"Cc1c(CN2CCN(C(=O)[C@H](C)O)CC2)sc2c(N3CCOCC3)nc(-c3cnc(N)nc3)nc12 [NKIL-GDC-0980 (RG7422), Apitolisib]",1
12,"Cn1c(=O)c(F)c(Nc2ccc(I)cc2F)c2c(=O)n(C[C@@H](O)CO)cnc21 [NKIL-TAK-733, TAK-733]",1
13,"C=CC(=O)N1CCC[C@@H](n2nc(-c3ccc(Oc4ccccc4)cc3)c(C(N)=O)c2N)C1 [MC-Btk inhibitor 2, Btk inhibitor 2]",1
14,"C=CC(=O)Nc1cccc(-c2c(-c3ccccc3)oc3ncnc(N[C@H](CO)c4ccccc4)c23)c1 [MC-EGFR-IN-9, EGFR-IN-9]",1
15,"C=CC(=O)Nc1ccc2ncnc(Nc3cccc(Br)c3)c2c1 [NKIL-PD168393, PD168393]",1
16,"COc1c(F)cccc1Nc1c(-c2ccncc2OCC(C)(C)OC)[nH]c2c1C(=O)NCC2 [MC-BAY 2476568, BAY 2476568]",1
17,"Cc1cccc([C@@H](CO)NC(=O)[C@@H](C)N2Cc3ccc(-c4nc(NC5CCOCC5)ncc4Cl)cc3C2=O)c1 [MC-ERK1/2 inhibitor 1, ERK1/2 inhibitor 1]",1
18,"CCN1CCN(Cc2ccc(-c3cc4c(N[C@H](C)c5ccccc5)ncnc4[nH]3)cc2)CC1 [NKIL-AEE788 (NVP-AEE788), AEE788]",1
